Source: patent publication US6737383B1, “Herbicidal oxadiazolidines” (priority 1999, dated 2004)

Tests used:
pigweed = test: Test B pre/postemergence pigweed; assay type: in vivo, Amaranthus retroflexus
Procedure, shortened: (§1)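 Test chemicals in a non-phytotoxic solvent mixture with surfactant were sprayed preemergence onto planted seeds and postemergence onto plants 2 to 18 cm tall (1- to 4-leaf stage). After twelve to sixteen days in a greenhouse, injury was visually rated against untreated controls from 0 (no effect) to 10 (complete control).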

rape = test: Test B pre/postemergence rape; assay type: in vivo, Brassica napus
Procedure, shortened: as §1

velvetleaf = test: Test B pre/postemergence velvetleaf; assay type: in vivo, Abutilon theophrasti; conditions: for Plant response rating, Velvetleaf: Rate 250 g/ha
Procedure, shortened: as §1

purple nutsedge = test: Test B pre/postemergence purple nutsedge; assay type: in vivo, Cyperus rotundus
Procedure, shortened: as §1

blackgrass = test: Test B pre/postemergence blackgrass; assay type: in vivo, Alopecurus myosuroides
Procedure, shortened: as §1

cocklebur = test: Test B pre/postemergence cocklebur; assay type: in vivo, Xanthium strumarium
Procedure, shortened: as §1

wild oat = test: Test B pre/postemergence wild oat; assay type: in vivo, Avena fatua; conditions: for Plant response rating, Wild oats: Rate 250 g/ha
Procedure, shortened: as §1

sugar beet = test: Test B pre/postemergence sugar beet; assay type: in vivo, Beta vulgaris; conditions: for Plant response rating, Sugarbeets: Rate 250 g/ha
Procedure, shortened: as §1

crabgrass = test: Test B pre/postemergence crabgrass; assay type: in vivo, Digitaria sanguinalis
Procedure, shortened: as §1

soybean = test: Test B pre/postemergence soybean; assay type: in vivo, Glycine max
Procedure, shortened: as §1

smallflower flatsedge = test: Test B flood test smallflower flatsedge; assay type: in vivo, Cyperus difformis
Procedure, shortened: (§2)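 Each value is a visual injury score relative to controls, with 10 meaning complete control and 0 no effect. Evaluation took place twelve to sixteen days after the 2-leaf-stage plants were treated and kept in the greenhouse.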

surinam grass = test: Test B pre/postemergence surinam grass; assay type: in vivo, Brachiaria decumbens
Procedure, shortened: as §1

wheat = test: Test B pre/postemergence wheat; assay type: in vivo, Triticum aestivum; conditions: for Plant response rating, Wheat: Rate 250 g/ha
Procedure, shortened: as §1

corn = test: Test B pre/postemergence corn; assay type: in vivo, Zea mays
Procedure, shortened: as §1

bedstraw = test: Test B pre/postemergence bedstraw; assay type: in vivo, Galium aparine
Procedure, shortened: as §1

bamyardgrass = test: Test B flood test barnyardgrass; assay type: in vivo, Echinochloa crus-galli
Procedure, shortened: as §2

[1] = Postemergence, Rate 125 g/ha, scale of 0 to 10 where 0 is no effect and 10 is complete control
[2] = Preemergence, Rate 62 g/ha, scale 0 to 10 (0 no effect, 10 complete control)
[3] = Preemergence, Rate 125 g/ha, scale 0 to 10 (0 no effect, 10 complete control)
[4] = Preemergence, Rate 250 g/ha, scale of 0 to 10 where 0 is no effect and 10 is complete control
[5] = Preemergence, Rate 500 g/ha, scale 0 to 10 (0 no effect, 10 complete control)
[6] = Rate 62 g/ha, Postemergence, scale of 0 to 10 where 0 is no effect and 10 is complete control
[7] = Rate 250 g/ha, Postemergence, scale 0 to 10, 0 is no effect, 10 is complete control
[8] = Rate 500 g/ha, Postemergence, scale 0 to 10, 0 no effect, 10 complete control
[9] = Postemergence, Rate 250 g/ha, scale 0 to 10, 0 no effect, 10 complete control
[10] = Preemergence, Rate 125 g/ha, 0 is no effect, 10 is complete control
[11] = Preemergence, scale of 0 to 10 where 0 is no effect and 10 is complete control
[12] = Postemergence, scale 0 to 10, 0 is no effect, 10 is complete control
[13] = Rate 250 g/ha, headed Pre-emergence (flood test species), scale 0 to 10 (0 no effect, 10 complete control)
[14] = Rate 500 g/ha, headed Pre-emergence (flood test species), scale 0 to 10 (0 no effect, 10 complete control)
[15] = Rate 500 g/ha, listed under Postemergence (flood test species), scale 0 to 10, 0 no effect, 10 complete control
[16] = Postemergence, Rate 62 g/ha, scale 0 to 10, 0 is no effect, 10 is complete control
[17] = Rate 125 g/ha, Postemergence, scale 0 to 10, 0 no effect, 10 complete control

SMILES: CC(C)N(C(=O)n1oc(=O)n(C2CCCCC2)c1=O)c1ccc(Cl)cc1 [Compound 111]
- Redroot pigweed plant response rating (pigweed; [1]): 3
- Redroot pigweed plant response rating (pigweed; [2]): 3
- Plant response rating, Redroot pigweed (pigweed; [3]): 6
- Plant response rating, Redroot pigweed (pigweed; [4]): 8
- Redroot pigweed plant response rating (pigweed; [5]): 8
- Redroot pigweed plant response rating (pigweed; [6]): 3
- Plant response rating, Redroot pigweed (pigweed; [7]): 4
- Redroot pigweed plant response rating (pigweed; [8]): 6
- Rape plant response rating (rape; [1]): 3
- Rape plant response rating (rape; [9]): 3
- Rape plant response rating (rape; [2]): 0
- Plant response rating, Rape (rape; [3]): 0
- Plant response rating, Rape (rape; [4]): 4
- Rape plant response rating (rape; [5]): 4
- Rape plant response rating (rape; [6]): 3
- Rape plant response rating (rape; [8]): 4
- Velvetleaf plant response rating (velvetleaf; [1]): 0
- Velvetleaf plant response rating (velvetleaf; [2]): 0
- Velvetleaf plant response rating (0 to 10 scale) (velvetleaf; [10]): 0
- Plant response rating, Velvetleaf (velvetleaf; [11]): 3
- Velvetleaf plant response rating (velvetleaf; [5]): 7
- Velvetleaf plant response rating (velvetleaf; [6]): 0
- Plant response rating, Velvetleaf (velvetleaf; [12]): 0
- Velvetleaf plant response rating (velvetleaf; [8]): 2
- Nutsedge plant response rating (purple nutsedge; [1]): 0
- Nutsedge plant response rating (purple nutsedge; [9]): 0
- Nutsedge plant response rating (purple nutsedge; [2]): 0
- Plant response rating, Nutsedge (purple nutsedge; [3]): 0
- Plant response rating, Nutsedge (purple nutsedge; [4]): 0
- Nutsedge plant response rating (purple nutsedge; [5]): 0
- Nutsedge plant response rating (purple nutsedge; [6]): 0
- Nutsedge plant response rating (purple nutsedge; [8]): 0
- Blackgrass plant response rating (blackgrass; [1]): 3
- Blackgrass plant response rating (blackgrass; [9]): 5
- Blackgrass plant response rating (blackgrass; [2]): 0
- Plant response rating, Blackgrass (blackgrass; [3]): 0
- Plant response rating, Blackgrass (blackgrass; [4]): 2
- Blackgrass plant response rating (blackgrass; [5]): 5
- Blackgrass plant response rating (blackgrass; [6]): 0
- Blackgrass plant response rating (blackgrass; [8]): 7
- Cocklebur plant response rating (cocklebur; [1]): 0
- Cocklebur plant response rating (cocklebur; [9]): 2
- Cocklebur plant response rating (cocklebur; [2]): 0
- Plant response rating, Cocklebur (cocklebur; [3]): 0
- Plant response rating, Cocklebur (cocklebur; [4]): 0
- Cocklebur plant response rating (cocklebur; [5]): 0
- Cocklebur plant response rating (cocklebur; [6]): 0
- Cocklebur plant response rating (cocklebur; [8]): 3
- Wild oats plant response rating (wild oat; [1]): 0
- Wild oats plant response rating (wild oat; [2]): 0
- Wild oats plant response rating (0 to 10 scale) (wild oat; [10]): 0
- Plant response rating, Wild oats (wild oat; [11]): 2
- Wild oats plant response rating (wild oat; [5]): 4
- Wild oats plant response rating (wild oat; [6]): 0
- Plant response rating, Wild oats (wild oat; [12]): 1
- Wild oats plant response rating (wild oat; [8]): 2
- Sugarbeets plant response rating (sugar beet; [1]): 3
- Sugarbeets plant response rating (sugar beet; [2]): 0
- Sugarbeets plant response rating (0 to 10 scale) (sugar beet; [10]): 0
- Plant response rating, Sugarbeets (sugar beet; [11]): 3
- Sugarbeets plant response rating (sugar beet; [5]): 4
- Sugarbeets plant response rating (sugar beet; [6]): 2
- Plant response rating, Sugarbeets (sugar beet; [12]): 3
- Sugarbeets plant response rating (sugar beet; [8]): 4
- Crabgrass plant response rating (crabgrass; [1]): 2
- Crabgrass plant response rating (crabgrass; [9]): 3
- Crabgrass plant response rating (crabgrass; [2]): 6
- Plant response rating, Crabgrass (crabgrass; [3]): 7
- Plant response rating, Crabgrass (crabgrass; [4]): 9
- Crabgrass plant response rating (crabgrass; [5]): 9
- Crabgrass plant response rating (crabgrass; [6]): 1
- Crabgrass plant response rating (crabgrass; [8]): 9
- Soybean plant response rating (soybean; [1]): 3
- Soybean plant response rating (soybean; [2]): 0
- Plant response rating, Soybean (soybean; [3]): 4
- Plant response rating, Soybean (soybean; [4]): 4
- Soybean plant response rating (soybean; [5]): 5
- Soybean plant response rating (soybean; [6]): 3
- Plant response rating, Soybean (soybean; [7]): 4
- Soybean plant response rating (soybean; [8]): 5
- S. Flatsedge plant response rating (smallflower flatsedge; Postemergence (flood test species), Rate 125 g/ha, scale of 0 to 10 where 0 is no effect and 10 is complete control): 0
- S. Flatsedge plant response rating (smallflower flatsedge; Pre-emergence, Rate 1000 g/ha, scale 0 to 10 (0 no effect, 10 complete control)): 0
- S. Flatsedge plant response rating (smallflower flatsedge; Rate 62 g/ha, Postemergence section, flood test species, scale of 0 to 10 where 0 is no effect and 10 is complete control): 0
- Plant response rating, S. Flatsedge (smallflower flatsedge; Rate 250 g/ha, Postemergence (flood test), scale 0 to 10, 0 is no effect, 10 is complete control): 0
- S. Flatsedge plant response rating (smallflower flatsedge; [13]): 0
- Plant response rating, S. Flatsedge (smallflower flatsedge; [14]): 0
- S. Flatsedge plant response rating (smallflower flatsedge; [15]): 0
- S. Flatsedge plant response rating (smallflower flatsedge; Rate 2000 g/ha, Pre-emergence (as headed), scale 0 to 10): 0
- B. signalgrass plant response rating (surinam grass; [16]): 0
- B. signalgrass plant response rating (surinam grass; [9]): 0
- B. signalgrass plant response rating (surinam grass; [2]): 0
- Plant response rating, B. signalgrass (surinam grass; [3]): 1
- Plant response rating, B. signalgrass (surinam grass; [4]): 1
- B. signalgrass plant response rating (surinam grass; [5]): 4
- B. signalgrass plant response rating (surinam grass; [17]): 0
- B. signalgrass plant response rating (surinam grass; Rate 500 g/ha, Postemergence, scale of 0 to 10 where 0 is no effect and 10 is complete control): 0
- Wheat plant response rating (wheat; [1]): 0
- Wheat plant response rating (wheat; [2]): 0
- Wheat plant response rating (0 to 10 scale) (wheat; [10]): 0
- Plant response rating, Wheat (wheat; [11]): 0
- Wheat plant response rating (wheat; [5]): 3
- Wheat plant response rating (wheat; [6]): 0
- Plant response rating, Wheat (wheat; [12]): 0
- Wheat plant response rating (wheat; [8]): 0
- Corn plant response rating (corn; [1]): 0
- Corn plant response rating (corn; [9]): 0
- Corn plant response rating (corn; [2]): 0
- Plant response rating, Corn (corn; [3]): 1
- Plant response rating, Corn (corn; [4]): 4
- Corn plant response rating (corn; [5]): 4
- Corn plant response rating (corn; [6]): 0
- Corn plant response rating (corn; [8]): 0
- Bedstraw plant response rating (bedstraw; [16]): 5
- Bedstraw plant response rating (bedstraw; [9]): 7
- Bedstraw plant response rating (bedstraw; [2]): 0
- Plant response rating, Bedstraw (bedstraw; [3]): 0
- Plant response rating, Bedstraw (bedstraw; [4]): 0
- Bedstraw plant response rating (bedstraw; [5]): 3
- Bedstraw plant response rating (bedstraw; [17]): 5
- Barnyardgrass plant response rating (bamyardgrass; [16]): 0
- Barnyardgrass plant response rating (bamyardgrass; Rate 125 g/ha, Postemergence section (flood test species), scale 0 to 10, 0 no effect, 10 complete control): 0
- Barnyardgrass plant response rating (bamyardgrass; [13]): 0
- Plant response rating, Barnyardgrass (bamyardgrass; [14]): 0
- Barnyardgrass plant response rating (bamyardgrass; [15]): 0
- Barnyardgrass plant response rating (bamyardgrass; Rate 1000 g/ha, Pre-emergence (as headed), scale 0 to 10): 0
- Barnyardgrass plant response rating (bamyardgrass; Rate 2000 g/ha, Pre-emergence (as headed), scale 0 to 10, 0 no effect, 10 complete control): 9
- Barnyardgrass plant response rating (bamyardgrass; flood test, listed under Postemergence, Rate 250 g/ha, scale 0 to 10, 0 no effect, 10 complete control): 0
